Laboratory results published in PubChem BioAssay (NCI).
“And” between values parts separate entries of the source, which are not always exact repeats. Equal entries are not always repeated.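 Cultured in 96-well plates, cells were exposed to test compound for 48 hours across five concentrations. GI50 = concentration required for 50% inhibition of growth. Definition used: TGI = concentration required for complete inhibition of growth.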

Legend:
Assay in all cases: growth of human tumour cells (NCI), 48 h
SF-295 CNS = test system: SF-295 CNS
HCT-15 colon = test system: HCT-15 colon
SNB-19 CNS = test system: SNB-19 CNS
RXF 393 renal = test system: RXF 393 renal
SR leukemia = test system: SR leukemia
MCF7 breast = test system: MCF7 breast
OVCAR-8 ovarian = test system: OVCAR-8 ovarian
CAKI-1 renal = test system: CAKI-1 renal

SMILES	GI50 (SF-295 CNS)	TGI (SF-295 CNS)	GI50 (HCT-15 colon)	TGI (HCT-15 colon)	GI50 (SNB-19 CNS)	TGI (SNB-19 CNS)	GI50 (RXF 393 renal)	TGI (RXF 393 renal)	GI50 (SR leukemia)	TGI (SR leukemia)	GI50 (MCF7 breast)	TGI (MCF7 breast)	GI50 (OVCAR-8 ovarian)	TGI (OVCAR-8 ovarian)	GI50 (CAKI-1 renal)	TGI (CAKI-1 renal)
CC(C)(CCN=C(N)Nc1ccccn1)c1ccc(C(F)(F)F)cc1	14.9 µM	29.3 µM	14.4 µM	29.2 µM	16.9 µM	33.1 µM	14.6 µM	29.6 µM	15.1 µM	32.9 µM	12.2 µM	27.4 µM	17.7 µM	33.2 µM		
CCOC(=O)c1ccc2c(c1)nc(/C=C/c1ccc(Cl)cc1)n2-c1cc(C(C)(C)C)[nH]n1	2.63 µM	8.82 µM	4.26 µM	> 100 µM	5.93 µM	> 100 µM	2.21 µM	6.48 µM			2.71 µM	10.2 µM	5.31 µM	33.9 µM	5.04 µM	61.2 µM
CN(C)CCC=C1c2ccccc2C(C)(C)c2ccccc21	3.92 µM	19.7 µM	12.3 µM	27.5 µM	15.2 µM	28.5 µM					10.2 µM	22.5 µM	18.6 µM	37.6 µM	8.56 µM	23.6 µM
CCCCCc1cc[n+](CC(=O)c2ccc([N+](=O)[O-])cc2)cc1	6.52 µM	24.3 µM	13.6 µM	49.9 µM	8.01 µM	> 100 µM	24.3 µM	94.4 µM			3.37 µM	13.4 µM	5.85 µM	39.6 µM	11.2 µM	34.8 µM
CCCCCCCCCCCCCCCC(=O)N[C@H](/C=C/[C@H](O)CCCCCCCCCCCCC)CO	> 100 µM	> 100 µM	> 100 µM	> 100 µM	> 100 µM	> 100 µM	> 100 µM	> 100 µM			> 100 µM	> 100 µM	> 100 µM	> 100 µM		
O=C(NNc1ccc(F)cc1)C1CCC(CNS(=O)(=O)c2ccc(Cl)c(Cl)c2)CC1 (stereo unspecified)	2.16 µM	45.5 µM	7.63 µM	> 50 µM	> 50 µM	> 50 µM			17 µM	> 50 µM	7.73 µM	> 50 µM	8.79 µM	35.6 µM	2.87 µM	28.1 µM
O=C1C(=O)c2ccccc2C(O)=C1CCCc1ccc(C2CCCC2)cc1	3.4 µM	11 µM	4.25 µM	16.9 µM			1.41 µM	11.6 µM	3.39 µM	12.9 µM	4.21 µM	21.1 µM	5.8 µM	60 µM	3.15 µM	11.8 µM
CSc1ccc2c(c1)N(CCC1CCCCN1C)c1ccccc1S2 (stereo unspecified)	8.64 µM and 2.86 µM	22.6 µM and 8.7 µM	5.11 µM and 4.01 µM	17.5 µM and 14.6 µM			3.2 µM and 1.56 µM	15.4 µM and 5.23 µM	4.45 µM and 3.41 µM	17.2 µM and 12.4 µM	5.63 µM and 2.2 µM	21.7 µM and 4.48 µM	11.9 µM and 10.3 µM	27.5 µM and 29.3 µM	3.23 µM and 4.91 µM	13 µM and 18.3 µM
CCN(CC)CCOc1ccc(/C=C2\C[C@H]3[C@H]4CC=C5C[C@@H](O)CC[C@]5(C)[C@H]4CC[C@]3(C)[C@H]2O)cc1OC	10.4 µM	25.4 µM	9.19 µM	18.5 µM	17.1 µM	> 50 µM	13.4 µM	39.3 µM			12.4 µM	> 50 µM	12.9 µM	26.5 µM	7.14 µM	15.9 µM
Clc1nc(Cl)c2c3c(sc2n1)CCCC3	> 100 µM	> 100 µM	4.07 µM	> 100 µM	> 100 µM	> 100 µM	4.06 µM	> 100 µM			3.56 µM	> 100 µM	4.38 µM	> 100 µM	> 100 µM	> 100 µM
CCCCCCC/C=C/[C@H]1O[C@]2(O)C(=O)C=C3C[C@@H](O[C@@H]4O[C@H](CO)[C@@H](O)C(O)[C@@H]4O)C[C@@H]3[C@H]2C=C1C (stereo partly specified)	3.87 µM	8.79 µM	1.04 µM	4.59 µM	3.52 µM	8.04 µM	0.82 µM	2.62 µM	0.717 µM	2.85 µM	1.05 µM	7.88 µM	1.01 µM	3.92 µM		
CC1(C)CCCC(C)(C2CCC3(C)C2C(O)CC2C4(C)CCC(O)C(C)(C)C4C(O)CC23C)O1 (stereo unspecified)		24.7 µM		24.7 µM		25.5 µM				86.1 µM		29.3 µM		41.9 µM		17.6 µM
O=c1c2cccc(F)c2sc2c(N3CCNCC3)nc3ccccc3c12	1.76 µM	3.33 µM	1.29 µM	2.71 µM			1.31 µM	2.62 µM	1.08 µM	3.35 µM	1.17 µM	2.66 µM	1.51 µM	3.42 µM	1.35 µM	2.73 µM
COc1cc2oc(-c3ccc(O)cc3O)c(CC=C(C)C)c(=O)c2c(O)c1/C=C/C(C)C		12.3 µM		10.3 µM		9.42 µM		4.61 µM		4.44 µM		7.56 µM		3.18 µM		
Cn1c(=O)c2ccc(-c3ccc(Br)cc3)nc2n(C)c1=O		> 100 µM		> 100 µM		> 100 µM				> 100 µM				> 100 µM		
NCCCn1c2c(c3ccc([N+](=O)[O-])cc3c1=O)C(=O)c1cc(-c3ccccc3)ccc1-2	1.79 µM	3.45 µM	0.187 µM	0.365 µM			1.36 µM	2.79 µM	0.183 µM	0.46 µM	0.357 µM	1.32 µM	0.31 µM	0.884 µM	1.67 µM	3.21 µM
C[N+](C)(CCCCCC[N+](C)(C)CCCN1C(=O)c2cc3ccccc3cc2C1=O)CCCN1C(=O)c2cc3ccccc3cc2C1=O	> 37.5 µM	> 37.5 µM	> 37.5 µM	> 37.5 µM	> 37.5 µM	> 37.5 µM	> 37.5 µM	> 37.5 µM			> 37.5 µM	> 37.5 µM	> 37.5 µM	> 37.5 µM	> 37.5 µM	> 37.5 µM
